According to patent publication US20230265151A1, “GIP/GLP1 CO-AGONIST COMPOUNDS” (priority 2020, published 2023):
Read-outs that look alike come from different tables or passages of the source.

Key:
[1] = biological target: T1, human Gcg receptor (hGcgR) (Homo sapiens, UniProt P47871); assay: [125I]-Glucagon binding, SPA with membranes of HEK293 cells expressing hGcgR
T1 construct: expressed in transfected cells; crude membranes

[2] = biological target: T2, human GIP receptor (hGIPR) (Homo sapiens, UniProt P48546); assay: [125I]-GIP binding, SPA with membranes of CHO cells expressing hGIPR
T2 construct: expressed in transfected cells; crude membranes
T2 sequence (P48546 22-466): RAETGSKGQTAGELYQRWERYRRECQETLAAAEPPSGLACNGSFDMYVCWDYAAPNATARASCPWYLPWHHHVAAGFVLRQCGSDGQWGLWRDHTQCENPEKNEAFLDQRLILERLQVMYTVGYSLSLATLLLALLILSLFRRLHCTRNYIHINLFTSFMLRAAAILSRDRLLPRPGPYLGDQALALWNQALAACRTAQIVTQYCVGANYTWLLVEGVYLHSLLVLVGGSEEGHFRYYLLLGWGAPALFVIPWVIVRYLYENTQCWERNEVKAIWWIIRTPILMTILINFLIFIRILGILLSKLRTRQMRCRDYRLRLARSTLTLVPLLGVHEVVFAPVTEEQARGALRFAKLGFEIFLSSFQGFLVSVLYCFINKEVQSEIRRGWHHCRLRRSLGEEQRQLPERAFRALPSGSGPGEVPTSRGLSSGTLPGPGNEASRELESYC

hGIPR = biological target: T3, hGIPR (Homo sapiens, UniProt P48546); assay: Functional cAMP formation (HTRF) in HEK-293 clonal cells expressing hGIPR, 0.1% bovine casein, without or with 1.0% human serum albumin; type: cell-based; conditions: for EC50: geometric mean; for Emax: read-out: hGIPR Emax, % ± SEM
T3 construct: expressed in transfected cells
T3 sequence (P48546 22-466): T2 sequence (P48546 22-466)
In short: (§1)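 Readings of the HTRF 665/620 nm ratio, which falls as cAMP rises, were converted to nM cAMP using a standard curve after 30 min peptide exposure at 37° C.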

hGCGR = biological target: T4, hGCGR (Homo sapiens, UniProt P47871); assay: Functional cAMP formation (HTRF) in HEK-293 clonal cells expressing hGCGR, 0.1% bovine casein, without or with 1.0% human serum albumin; type: cell-based; conditions: geometric mean
T4 construct: expressed in transfected cells
In short: as §1

hGLP-1R = hGLP-1R (Homo sapiens, UniProt P43220); assay: Functional cAMP formation (HTRF) in HEK-293 clonal cells expressing hGLP-1R, 0.1% bovine casein, without or with 1.0% human serum albumin; type: cell-based; design: expressed in transfected cells; conditions: for EC50: geometric mean; for Emax: read-out: hGLP-1R Emax, % ± SEM
In short: as §1

[3] = human GcgR, geometric mean (SEM, n), read-out: Binding Affinity Ki, nM (SEM, n) hGCGR
[4] = human GIPR, geometric mean (SEM, n), read-out: Binding Affinity Ki, nM (SEM, n) hGIPR
[5] = 0.1% bovine casein and 1.0% human serum albumin, 37° C., read-out: hGIPR EC50, nM (SEM, n)
[6] = HEK293, 0.1% bovine casein and 1.0% human serum albumin, 37° C., percent of maximal response to GIP(1-42)NH2
[7] = HEK293, percent of maximal response to GIP(1-42)NH2, 37° C., 0.1% bovine casein, arithmetic mean
[8] = cAMP, incubated at 37° C., 0.1% bovine casein (no human serum albumin), read-out: hGIPR EC50, nM (SEM, n)
[9] = 0.1% bovine casein and 1.0% human serum albumin, 37° C., read-out: hGCGR EC50, nM (SEM, n)
[10] = cAMP, incubated at 37° C., 0.1% bovine casein (no human serum albumin), read-out: hGCGR EC50, nM (SEM, n)
[11] = 0.1% bovine casein and 1.0% human serum albumin, 37° C., read-out: hGLP-1R EC50, nM (SEM, n)
[12] = HEK293, 0.1% bovine casein and 1.0% human serum albumin, 37° C., percent of maximal response to GLP-1(7-36)NH2
[13] = HEK293, percent of maximal response to GLP-1(7-36)NH2, 37° C., 0.1% bovine casein, arithmetic mean

Chain of hGLP-1R (P43220 24-463): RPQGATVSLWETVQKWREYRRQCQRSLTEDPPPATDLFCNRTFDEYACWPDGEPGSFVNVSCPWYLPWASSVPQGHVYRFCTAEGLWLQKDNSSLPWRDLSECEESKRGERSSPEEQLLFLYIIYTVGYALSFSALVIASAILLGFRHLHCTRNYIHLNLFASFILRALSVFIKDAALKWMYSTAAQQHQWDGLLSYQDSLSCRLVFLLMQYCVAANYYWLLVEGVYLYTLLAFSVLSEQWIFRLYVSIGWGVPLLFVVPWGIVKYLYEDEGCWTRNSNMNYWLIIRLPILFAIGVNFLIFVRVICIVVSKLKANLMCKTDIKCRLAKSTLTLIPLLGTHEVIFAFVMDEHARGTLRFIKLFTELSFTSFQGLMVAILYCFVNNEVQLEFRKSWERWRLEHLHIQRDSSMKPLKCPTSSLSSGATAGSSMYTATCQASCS
T1 sequence (P47871 26-477): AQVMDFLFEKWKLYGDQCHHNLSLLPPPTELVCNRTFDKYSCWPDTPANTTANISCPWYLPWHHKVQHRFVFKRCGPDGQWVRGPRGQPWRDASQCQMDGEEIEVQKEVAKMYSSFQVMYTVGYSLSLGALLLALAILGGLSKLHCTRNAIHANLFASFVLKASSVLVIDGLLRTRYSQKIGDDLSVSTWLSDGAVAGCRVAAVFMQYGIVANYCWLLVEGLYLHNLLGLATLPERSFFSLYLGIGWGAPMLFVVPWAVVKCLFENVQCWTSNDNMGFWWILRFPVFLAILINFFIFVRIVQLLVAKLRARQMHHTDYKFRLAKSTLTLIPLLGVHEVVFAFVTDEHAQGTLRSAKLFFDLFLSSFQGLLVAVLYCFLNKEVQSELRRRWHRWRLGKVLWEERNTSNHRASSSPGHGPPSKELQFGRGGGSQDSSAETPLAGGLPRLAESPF
T4 sequence (P47871 26-477): as above

| Compound | Ki [1] [nM] | Ki [2] [nM] | EC50 (hGIPR; hGIPR EC50, nM (SEM, n), 0.1% bovine casein and 1.0% human serum albumin, 37° C.) [nM] | EC50 (hGIPR; hGIPR EC50, nM (SEM, n), cAMP, incubated at 37° C., 0.1% bovine casein (no human serum albumin)) [nM] | EC50 (hGCGR; hGCGR EC50, nM (SEM, n), 0.1% bovine casein and 1.0% human serum albumin, 37° C.) [nM] | EC50 (hGCGR; hGCGR EC50, nM (SEM, n), cAMP, incubated at 37° C., 0.1% bovine casein (no human serum albumin)) [nM] | EC50 (hGLP-1R; hGLP-1R EC50, nM (SEM, n), 0.1% bovine casein and 1.0% human serum albumin, 37° C.) [nM] | Ki [1, 3] [nM] | Ki [2, 4] [nM] | EC50 (hGIPR; [5]) [nM] | Emax (hGIPR; [6]) [%] | Emax (hGIPR; [7]) [%] | EC50 (hGIPR; [8]) [nM] | EC50 (hGCGR; [9]) [nM] | EC50 (hGCGR; [10]) [nM] | EC50 (hGLP-1R; [11]) [nM] | Emax (hGLP-1R; [12]) [%] | Emax (hGLP-1R; [13]) [%] | EC50 (hGLP-1R; cAMP, incubated at 37° C., 0.1% bovine casein (no human serum albumin), read-out: hGLP-1R EC50, nM (SEM, n)) [nM] |
| --- | --- | --- | --- | --- | --- | --- | --- | --- | --- | --- | --- | --- | --- | --- | --- | --- | --- | --- | --- |
| CC[C@H](C)[C@H](NC(=O)[C@H](CC(C)C)NC(=O)[C@](C)(Cc1ccc(O)cc1)NC(=O)[C@@H](CCC(=O)O)NC(=O)[C@@H](NC(=O)[C@H](Cc1ccccc1)NC(=O)[C@H](CCC(=O)O)NC(=O)C(C)(C)NC(=O)[C@H](CCC(N)=O)NC(=O)[C@H](C)NC(=O)[C@H](CCCCNC(=O)COCCOCCNC(=O)CC[C@H](NC(=O)CCCCCCCCCOc1ccc(C(=O)O)cc1)C(=O)O)NC(=O)[C@H](CCCN)NC(=O)[C@H](CC(=O)O)NC(=O)[C@H](CC(C)C)NC(=O)[C@](C)(CC(C)C)NC(=O)[C@@H](NC(=O)[C@H](CO)NC(=O)[C@H](Cc1ccncc1)NC(=O)[C@H](CC(=O)O)NC(=O)[C@H](CO)NC(=O)[C@@H](NC(=O)[C@](C)(Cc1ccccc1F)NC(=O)[C@@H](NC(=O)CNC(=O)[C@H](CCC(=O)O)NC(=O)C(C)(C)NC(=O)[C@@H](N)Cc1ccc(O)cc1)[C@@H](C)O)[C@@H](C)O)[C@@H](C)CC)[C@@H](C)CC)C(=O)N[C@@H](CCC(=O)O)C(=O)NCC(=O)NCC(=O)N[C@@H](CCCCNC(=O)COCCOCCNC(=O)CC[C@H](NC(=O)CCCCCCCCCOc1ccc(C(=O)O)cc1)C(=O)O)C(=O)N[C@@H](CO)C(=O)N[C@@H](CO)C(=O)NCC(=O)N[C@@H](C)C(=O)N1CCC[C@H]1C(=O)N1CCC[C@H]1C(=O)N1CCC[C@H]1C(=O)N[C@@H](CO)C(N)=O [Example 12] | 213 | 0.0575 | 0.745 | 0.0127 | > 9950 | > 9950 | 20.3 | – | – | – | – | – | – | – | – | – | – | – | – |
| CC[C@H](C)[C@H](NC(=O)[C@H](CC(C)C)NC(=O)[C@](C)(Cc1ccc(O)cc1)NC(=O)[C@@H](CCC(=O)O)NC(=O)[C@@H](NC(=O)[C@H](Cc1ccccc1)NC(=O)[C@H](CCCCNC(=O)COCCOCCNC(=O)COCCOCCNC(=O)CC[C@H](NC(=O)CCCCCCCCCCCCC(=O)O)C(=O)O)NC(=O)C(C)(C)NC(=O)[C@H](CCC(N)=O)NC(=O)[C@H](C)NC(=O)[C@H](CCCCNC(=O)COCCOCCNC(=O)COCCOCCNC(=O)CC[C@H](NC(=O)CCCCCCCCCCCCC(=O)O)C(=O)O)NC(=O)[C@H](CCCN)NC(=O)[C@H](CC(=O)O)NC(=O)[C@H](CC(C)C)NC(=O)[C@](C)(CC(C)C)NC(=O)[C@@H](NC(=O)[C@H](CO)NC(=O)[C@H](Cc1ccncc1)NC(=O)[C@H](CC(=O)O)NC(=O)[C@H](CO)NC(=O)[C@@H](NC(=O)[C@](C)(Cc1ccccc1F)NC(=O)[C@@H](NC(=O)CNC(=O)[C@H](CCC(=O)O)NC(=O)C(C)(C)NC(=O)[C@@H](N)Cc1ccc(O)cc1)[C@@H](C)O)[C@@H](C)O)[C@@H](C)CC)[C@@H](C)CC)C(=O)N[C@@H](CCC(=O)O)C(=O)NCC(=O)NCC(=O)N1CCC[C@H]1C(=O)N[C@@H](CO)C(=O)N[C@@H](CO)C(=O)NCC(=O)N[C@@H](C)C(=O)N1CCC[C@H]1C(=O)N1CCC[C@H]1C(=O)N1CCC[C@H]1C(=O)N[C@@H](CO)C(N)=O [Example 15] | – | – | – | – | – | – | – | > 966 | 0.0629 | 0.573 | 94.4 ± 1.01 | 95.9 ± 2.34 | 0.0133 | > 9950 | > 9950 | 24.8 | 93.2 ± 3.68 | 94.3 ± 4.44 | – |
| CC[C@H](C)[C@H](NC(=O)[C@H](CC(C)C)NC(=O)[C@](C)(Cc1ccc(O)cc1)NC(=O)[C@@H](CCC(=O)O)NC(=O)[C@@H](NC(=O)[C@H](Cc1ccccc1)NC(=O)[C@H](CCC(=O)O)NC(=O)C(C)(C)NC(=O)[C@H](CCC(N)=O)NC(=O)[C@H](C)NC(=O)[C@H](CCCCNC(=O)[C@@H](N)CCCCNC(=O)COCCOCCNC(=O)COCCOCCNC(=O)CC[C@H](NC(=O)CCCCCCCCCCCCC(=O)O)C(=O)O)NC(=O)[C@H](CCCN)NC(=O)[C@H](CC(=O)O)NC(=O)[C@H](CC(C)C)NC(=O)[C@](C)(CC(C)C)NC(=O)[C@@H](NC(=O)[C@H](CO)NC(=O)[C@H](Cc1ccncc1)NC(=O)[C@H](CC(=O)O)NC(=O)[C@H](CO)NC(=O)[C@@H](NC(=O)[C@](C)(Cc1ccccc1F)NC(=O)[C@@H](NC(=O)CNC(=O)[C@H](CCC(=O)O)NC(=O)C(C)(C)NC(=O)[C@@H](N)Cc1ccc(O)cc1)[C@@H](C)O)[C@@H](C)O)[C@@H](C)CC)[C@@H](C)CC)C(=O)N[C@@H](CCC(=O)O)C(=O)NCC(=O)NCC(=O)N[C@@H](CCCCNC(=O)[C@@H](N)CCCCNC(=O)COCCOCCNC(=O)COCCOCCNC(=O)CC[C@H](NC(=O)CCCCCCCCCCCCC(=O)O)C(=O)O)C(=O)N[C@@H](CO)C(=O)N[C@@H](CO)C(=O)NCC(=O)N[C@@H](C)C(=O)N1CCC[C@H]1C(=O)N1CCC[C@H]1C(=O)N1CCC[C@H]1C(=O)N[C@@H](CO)C(N)=O [Example 37] | – | – | – | – | – | – | – | > 957 | 0.171 | 0.306 | 88.5 ± 0.188 | 91.2 ± 3.67 | 0.0211 | > 9950 | > 9950 | 17 | – | – | – |
| CC[C@H](C)[C@H](NC(=O)[C@H](CC(C)C)NC(=O)[C@](C)(Cc1ccc(O)cc1)NC(=O)[C@@H](CCC(=O)O)NC(=O)[C@@H](NC(=O)[C@H](Cc1cccc(F)c1)NC(=O)[C@H](CCC(=O)O)NC(=O)C(C)(C)NC(=O)[C@H](CCC(N)=O)NC(=O)[C@H](C)NC(=O)[C@H](CCCCNC(=O)COCCOCCNC(=O)COCCOCCNC(=O)CC[C@H](NC(=O)CCCCCCCCCCCCC(=O)O)C(=O)O)NC(=O)[C@H](CCCN)NC(=O)[C@H](CC(=O)O)NC(=O)[C@H](CC(C)C)NC(=O)[C@](C)(CC(C)C)NC(=O)[C@@H](NC(=O)[C@H](CO)NC(=O)[C@H](Cc1ccncc1)NC(=O)[C@H](CC(=O)O)NC(=O)[C@H](CO)NC(=O)[C@@H](NC(=O)[C@](C)(Cc1ccccc1F)NC(=O)[C@@H](NC(=O)CNC(=O)[C@H](CCC(=O)O)NC(=O)C(C)(C)NC(=O)[C@@H](N)Cc1ccc(O)cc1)[C@@H](C)O)[C@@H](C)O)[C@@H](C)CC)[C@@H](C)CC)C(=O)N[C@@H](CCC(=O)O)C(=O)NCC(=O)NCC(=O)N[C@@H](CCCCNC(=O)COCCOCCNC(=O)COCCOCCNC(=O)CC[C@H](NC(=O)CCCCCCCCCCCCC(=O)O)C(=O)O)C(=O)N[C@@H](CO)C(=O)N[C@@H](CO)C(=O)NCC(=O)N[C@@H](C)C(=O)N1CCC[C@H]1C(=O)N1CCC[C@H]1C(=O)N1CCC[C@H]1C(=O)N[C@@H](CO)C(N)=O [Example 64] | – | – | – | – | – | – | – | > 4780 | 0.161 | – | 90.5 ± 3.44 | 92.9 ± 3.06 | 0.0158 | > 9950 | > 9950 | 27 | 87.8 ± 0.301 | 97.3 ± 4.13 | 0.557 |
